Consider 32 molecules from ChEMBL document CHEMBL1130157 (J Med Chem, 1997).

The structures appear in SMILES notation. Some results are limits rather than exact numbers.

Test [1] concerns the target Translocator protein (Rattus norvegicus, UniProt P16257). In words: Displacement of Ro 5-4864 from peripheral (renal cell) Benzodiazepine receptor.
Test [2] concerns the target GABA-A receptor; anion channel. Kind of test: Displacement of [3H]flunitrazepam from rat brain GABA-A Benzodiazepine receptor.
The target in test [3] is GABA-A receptor; anion channel (Rattus norvegicus) (UniProt O09028+P15431+P18506+P18508+P19969+P20236+P23574+P23576+P28471+P28473+P30191+P62813+P63079+P63138+Q91ZM7+Q9ES14). Kind of test: Percentage inhibition of [3H]flunitrazepam binding to rat brain GABA-A benzodiazepine receptor at 40 uM.
The target in test [4] is GABA A receptor alpha-2/beta-2/gamma-2 (Homo sapiens) (UniProt P47870+P18507+P47869). In words: Maximal potentiation of GABA-evoked Cl- currents in Xenopus oocytes expressing human alpha-2-beta-2-gamma-2 subunits. The class given is functional, cell-based. The settings on record: Oocyte.
In test [5] the target is T1, GABA A receptor alpha-2/beta-2/gamma-2 (Homo sapiens, UniProt P18507+P47869+P47870).
T1 sequence (P47870 whole entry): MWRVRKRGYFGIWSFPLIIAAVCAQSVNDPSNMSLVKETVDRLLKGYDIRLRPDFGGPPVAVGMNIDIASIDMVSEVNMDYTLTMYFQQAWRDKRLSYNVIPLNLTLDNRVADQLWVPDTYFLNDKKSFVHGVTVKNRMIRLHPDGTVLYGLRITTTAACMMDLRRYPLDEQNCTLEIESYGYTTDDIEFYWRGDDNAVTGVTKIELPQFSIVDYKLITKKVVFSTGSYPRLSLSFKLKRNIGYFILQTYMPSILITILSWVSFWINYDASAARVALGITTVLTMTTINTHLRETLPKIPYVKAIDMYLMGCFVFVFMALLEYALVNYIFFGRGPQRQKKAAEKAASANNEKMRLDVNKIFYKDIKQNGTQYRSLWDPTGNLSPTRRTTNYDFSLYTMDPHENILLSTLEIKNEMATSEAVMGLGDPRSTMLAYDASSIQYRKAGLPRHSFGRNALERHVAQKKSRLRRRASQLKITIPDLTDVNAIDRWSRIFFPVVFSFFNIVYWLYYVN
T1 sequence (P18507 whole entry): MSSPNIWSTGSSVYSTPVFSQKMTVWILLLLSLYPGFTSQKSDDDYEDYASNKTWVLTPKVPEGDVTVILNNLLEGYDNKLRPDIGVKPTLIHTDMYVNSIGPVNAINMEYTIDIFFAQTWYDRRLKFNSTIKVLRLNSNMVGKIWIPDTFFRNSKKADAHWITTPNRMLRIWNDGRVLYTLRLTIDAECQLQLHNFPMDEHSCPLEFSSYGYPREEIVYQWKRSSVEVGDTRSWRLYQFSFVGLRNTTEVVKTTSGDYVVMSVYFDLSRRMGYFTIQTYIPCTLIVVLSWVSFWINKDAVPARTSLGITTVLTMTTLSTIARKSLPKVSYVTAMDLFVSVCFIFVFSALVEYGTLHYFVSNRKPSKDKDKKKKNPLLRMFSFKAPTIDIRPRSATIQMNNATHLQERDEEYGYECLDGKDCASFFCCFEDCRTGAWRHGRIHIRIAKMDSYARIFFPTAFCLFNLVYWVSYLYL
T1 sequence (P47869 whole entry): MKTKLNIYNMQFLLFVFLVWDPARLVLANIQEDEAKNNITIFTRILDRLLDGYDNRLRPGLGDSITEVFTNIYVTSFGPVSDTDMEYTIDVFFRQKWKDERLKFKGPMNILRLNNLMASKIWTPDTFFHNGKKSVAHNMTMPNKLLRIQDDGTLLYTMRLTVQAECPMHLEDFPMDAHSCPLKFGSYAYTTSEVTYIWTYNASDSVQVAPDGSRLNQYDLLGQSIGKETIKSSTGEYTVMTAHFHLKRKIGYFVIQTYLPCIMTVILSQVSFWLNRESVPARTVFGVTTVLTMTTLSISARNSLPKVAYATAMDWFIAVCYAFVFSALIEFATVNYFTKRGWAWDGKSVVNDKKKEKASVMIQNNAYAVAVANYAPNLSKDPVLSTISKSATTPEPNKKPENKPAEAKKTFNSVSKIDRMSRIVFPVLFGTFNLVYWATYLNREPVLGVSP
In words: Potentiation of GABA-evoked Cl- currents in Xenopus oocytes expressing human alpha-2-beta-2-gamma-2 subunits. The class given is functional, cell-based, Oocyte.

Sequence of Translocator protein (P16257 whole entry, looked up): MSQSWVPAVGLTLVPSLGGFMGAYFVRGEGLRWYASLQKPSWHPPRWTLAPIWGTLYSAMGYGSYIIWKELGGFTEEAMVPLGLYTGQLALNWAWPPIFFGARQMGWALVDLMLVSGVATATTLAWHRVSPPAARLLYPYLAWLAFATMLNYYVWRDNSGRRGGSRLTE

With `CCCCOC(=O)Cc1c(-c2ccccc2)nc2ccc(C)cn12`, the IC50 (in general, the point on the concentration scale where inhibition reaches its midpoint) was over 100000 nM in test [1] and 3150 nM in test [2].
Taken in the same sequence, the figures for `CCOC(=O)Cc1c(-c2ccccc2)nc2ccc(Cl)cn12` were over 100000 nM and 1170 nM.
As to `CCCCOC(=O)CCc1c(-c2ccccc2)nc2ccc(Cl)cn12`, the concentration for half-maximal inhibition (IC50) in test [1] was over 100000 nM; in test [2], 1180 nM.
Taken in the same sequence, the figures for `CCCN(CCC)C(=O)Cc1c(-c2ccccc2)nc2ccc(OC)cn12` were 33.6 nM and 2830 nM.
With `CCCN(CCC)C(=O)Cc1c(-c2ccccc2)nc2c(C)cc(Br)cn12`, the inhibition (usually the share of the control response that was lost under treatment) in test [3] was 68%. The molecule further yielded a concentration for half-maximal inhibition (IC50) in test [1] of 13.5 nM.
`CCCN(CCC)C(=O)Cc1c(-c2ccc(Cl)cc2)nc2c(Cl)cc(C(F)(F)F)cn12`: the inhibition in test [3] was 0%. For the same molecule, in test [1], the 50% inhibitory concentration (IC50) is 37 nM.
Take `CCCN(CCC)C(=O)CCc1c(-c2ccccc2)nc2ccc(Cl)cn12`: the IC50 in test [1] is 3270 nM; in test [2], 308 nM.
Consider `CCCCOC(=O)Cc1c(-c2ccc(Cl)cc2)nc2ccc(Cl)cn12`, for which the 50% inhibitory concentration (IC50) in test [1] was over 100000 nM; in test [2] it was 2780 nM.
`CCOC(=O)c1c(-c2ccc(C)cc2)nc2ccc(C)cn12`: the half-maximal inhibitory concentration (IC50) in test [1] was over 100000 nM; in test [2], 1150 nM.
`CCCN(CCC)C(=O)Cc1c(-c2ccc(Cl)cc2)nc2ccc(Cl)cn12` [ALPIDEM]: the half-maximal inhibitory concentration (IC50) stood at 7.9 nM in test [1] and 26 nM in test [2].
For `CCCN(CCC)C(=O)Cc1c(-c2ccc(Cl)cc2)nc2ccc(Br)cn12` the same measures were 12 nM and 58 nM.
In the case of `CCCN(CCC)C(=O)Cc1c(-c2ccc(Cl)cc2)nc2c(Cl)cc(Cl)cn12` [ALPDEM], the inhibition in test [3] worked out at 0%. Further, in test [1], the 50% inhibitory concentration (IC50) worked out at 20 nM.
On to `CCCN(CCC)C(=O)Cc1c(-c2ccccc2)nc2ccc([N+](=O)[O-])cn12`, for which the IC50 in test [1] amounted to 11.8 nM; in test [2], 2740 nM.
For `CCOC(=O)CCc1c(-c2ccccc2)nc2ccc(Cl)cn12` the same measures were over 100000 nM and 1110 nM.
For `O=C(c1c(-c2ccc(Cl)cc2)nc2ccc(Cl)cn12)N1CCCC1` the same measures were over 100000 nM and 2980 nM.
Take `CCCN(CCC)C(=O)Cc1c(-c2ccccc2)nc2ccc(Br)cn12`: the half-maximal inhibitory concentration (IC50) in test [1] was determined as 14.5 nM; in test [2], 116 nM.
`Cc1ccc(-c2nc3ccc(C)cn3c2CC(=O)N(C)C)cc1` [ZOLPIDEM]: the half-maximal inhibitory concentration (IC50) in test [1] is 4700 nM. The Efficacy in test [4] was found to be 150%.
Turning to `CCN(CC)C(=O)c1c(-c2ccc(Cl)cc2)nc2ccc(Cl)cn12`, the results for the concentration for half-maximal inhibition (IC50) in test [1] and in test [2] were 2040 nM and 8380 nM, respectively.
Taken in the same sequence, the figures for `CCCCOC(=O)Cc1c(-c2ccccc2)nc2ccc(Cl)cn12` were over 100000 nM and 2500 nM.
For `CCOC(=O)c1c(-c2ccccc2)nc2ccc(Cl)cn12` the same measures were over 100000 nM and 2120 nM.
For `CCOC(=O)Cc1c(-c2ccccc2)nc2ccc(C)cn12`, the IC50 in test [1] was over 100000 nM; in test [2], 1390 nM.
Consider `CCCN(CCC)C(=O)Cc1c(-c2ccccc2)nc2c(Br)cc(C)cn12`, for which, in test [3], the inhibition came out at 78%. For the same molecule, the IC50 in test [1] was determined as 19 nM.
On to `O=C(Cc1c(-c2ccc(Cl)cc2)nc2ccc(Cl)cn12)N1CCCC1`, for which the results for the IC50 in test [1] and in test [2] were 287 nM and 92 nM, respectively. Moreover, the EC50 (in general, the concentration giving half of the maximal effect) in test [5] stood at 6600 nM. Also, the Efficacy in test [4] worked out at 71%.
For the molecule `CCCN(CCC)C(=O)Cc1c(-c2ccccc2)nc2ccc(C)cn12`, the results for the half-inhibitory concentration (IC50) in test [1] and in test [2] were 34.5 nM and 125 nM, respectively.
In the case of `CCCN(CCC)C(=O)Cc1c(-c2ccccc2)nc2ccc(I)cn12`, the IC50 worked out at 23 nM in test [1] and 286 nM in test [2].
On to `CCCN(CCC)C(=O)Cc1c(-c2ccccc2)nc2ccc(Cl)cn12`, for which the IC50 amounted to 4 nM in test [1] and 86 nM in test [2]. Besides, the EC50 in test [5] is 130 nM. For the same molecule, in test [4], the Efficacy was found to be 139%.
`O=C(Cc1c(-c2ccc(Cl)cc2)nc2ccc(Cl)cn12)N1CCCCC1`: the half-maximal inhibitory concentration (IC50) in test [1] was 18.7 nM; in test [2] it was 240 nM.
In test [3], `CCCN(CCC)C(=O)Cc1c(-c2ccc(Cl)cc2)nc2c(Br)cc(Br)cn12` gave an inhibition of 17%. Also, the half-maximal inhibitory concentration (IC50) in test [1] is 55.3 nM.
Regarding `CCOC(=O)Cc1c(-c2ccc(Cl)cc2)nc2ccc(Cl)cn12`, the half-maximal inhibitory concentration (IC50) in test [1] is over 100000 nM; in test [2] it was 695 nM.
For `CCCN(CCC)C(=O)Cc1c(-c2ccccc2)nc2c(Cl)cc(Cl)cn12`, the inhibition in test [3] was determined as 46%. The same molecule came in with a concentration for half-maximal inhibition (IC50) in test [1] of 12 nM.
Consider `CCCN(CCC)C(=O)c1c(-c2ccc(Cl)cc2)nc2ccc(Cl)cn12`, for which the half-inhibitory concentration (IC50) in test [1] is 426 nM.
With `CCCN(CCC)C(=O)Cc1c(-c2ccccc2)nc2ccccn12`, the concentration for half-maximal inhibition (IC50) came to 80 nM in test [1] and 464 nM in test [2].
